Results published in patent US20240116985A1, “STAPLED PEPTIDES AND METHODS THEREOF” (priority 2020, published 2024).
Like-named read-outs stand apart in the source and are kept apart here.

Key:
[1] = biological target: T1, beta-catenin/TCF4 engagement (Homo sapiens, UniProt P35222); assay: Nano-BRET target engagement assay (B-cat-Halo & TCF4-Luc in HEK293 cells); type: cell-based; conditions: absolute IC50
T1 construct: expressed in transfected cells; host or cells: HEK293
T1 sequence (P35222 1-781): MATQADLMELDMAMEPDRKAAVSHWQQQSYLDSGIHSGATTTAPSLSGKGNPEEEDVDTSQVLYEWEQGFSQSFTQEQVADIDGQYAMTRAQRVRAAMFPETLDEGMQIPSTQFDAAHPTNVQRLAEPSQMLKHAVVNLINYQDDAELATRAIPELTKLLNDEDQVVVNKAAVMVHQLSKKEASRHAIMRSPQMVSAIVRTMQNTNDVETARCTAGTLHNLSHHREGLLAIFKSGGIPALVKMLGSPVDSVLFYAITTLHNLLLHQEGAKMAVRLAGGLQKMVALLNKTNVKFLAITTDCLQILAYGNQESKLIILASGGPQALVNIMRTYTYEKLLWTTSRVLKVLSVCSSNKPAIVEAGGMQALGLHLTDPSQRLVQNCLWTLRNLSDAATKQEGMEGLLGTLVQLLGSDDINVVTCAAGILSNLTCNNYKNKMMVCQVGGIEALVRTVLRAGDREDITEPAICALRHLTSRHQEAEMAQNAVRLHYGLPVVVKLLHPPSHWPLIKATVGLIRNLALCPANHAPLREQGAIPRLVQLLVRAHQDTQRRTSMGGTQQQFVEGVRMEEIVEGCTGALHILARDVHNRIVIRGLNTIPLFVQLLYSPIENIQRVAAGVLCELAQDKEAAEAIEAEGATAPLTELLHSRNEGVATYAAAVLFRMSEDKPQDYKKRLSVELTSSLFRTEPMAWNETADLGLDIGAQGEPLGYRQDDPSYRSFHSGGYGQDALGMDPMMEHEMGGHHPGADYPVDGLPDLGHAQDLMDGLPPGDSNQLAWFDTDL

[2] = biological target: T2, full-length beta-Catenin (Uniprot ID P35222) (Homo sapiens, UniProt P35222); assay: Fluorescence polarization IC50 (beta-catenin / 5FAM-TCF4 10-53 competition); type: binding; conditions: fluorescence polarization
T2 construct: 10 nM full-length beta-Catenin (Uniprot ID P35222)
T2 sequence (P35222 1-781): T1 sequence (P35222 1-781)

CNC(=O)CC[C@@H]1NC(=O)[C@H](CCC(N)=O)NC(=O)[C@H](CC(=O)O)NC(=O)C2(CCCC=CCCCOC(=O)N3CC[C@@](C(=O)N[C@@H](Cc4ccccc4)C(=O)N[C@@H](Cc4csc5ccccc45)C(=O)N[C@@H](CC(=O)N4CCOCC4)C(N)=O)(C3)NC(=O)[C@H](CC(C)C)NC(=O)[C@H](Cc3ccccc3)NC(=O)[C@H](C)NC1=O)CCCC=CC[C@]1(CCCN1C(C)=O)C(=O)N[C@@H](CC(N)=O)C(=O)N[C@@H](CC1CCCCC1)C(=O)N2 (stereo partly drawn) [I-2502, Ac-PL3-Asn-Cha-B5-Asp-Gln-MeGln-Ala-Phe-Leu-PyrS2-Phe-BztA-MorphAsn-NH2]
IC50 ([1]; read-out: NanoBRET Abs IC50): > 20 µM
IC50 ([2]; read-out: beta-Catenin FP IC50): 214 nM

CC(=O)N1CCC[C@]12CC=CCCCC1(CCCC=CCCCOC(=O)N3CC[C@@](C(=O)N[C@@H](Cc4ccccc4)C(=O)N[C@@H](Cc4csc5ccccc45)C(=O)N[C@@H](CC(=O)N4CCOCC4)C(N)=O)(C3)NC(=O)[C@H](CC(C)C)NC(=O)[C@H](Cc3ccccc3)NC(=O)[C@H](C)NC(=O)[C@H](CCC(N)=O)NC(=O)[C@H](CCC(N)=O)NC(=O)[C@H](CC(=O)O)NC1=O)NC(=O)[C@H](CC1CCCCC1)NC(=O)[C@H](CC(N)=O)NC2=O (stereo partly drawn) [I-2504, Ac-PL3-Asn-Cha-B5-Asp-Gln-Gln-Ala-Phe-Leu-PyrS2-Phe-BztA-MorphAsn-NH2]
IC50 ([1]; read-out: NanoBRET Abs IC50): > 20 µM
IC50 ([2]; read-out: beta-Catenin FP IC50): 210 nM

CC(=O)N1CCC[C@]12CC=CCCCCC1(CCCCC=CCCOC(=O)N3CC[C@@](C(=O)N[C@@H](Cc4ccccc4C(F)(F)F)C(=O)N[C@@H](Cc4csc5ccccc45)C(=O)N[C@@H](CCC(N)=O)C(N)=O)(C3)NC(=O)[C@H](CC(C)C)NC(=O)[C@H](Cc3ccccc3)NC(=O)[C@H](C)NC(=O)[C@H](C)NC(=O)[C@H](Cc3cccc(C(=O)O)c3)NC(=O)[C@H](CC(=O)O)NC1=O)NC(=O)[C@H](CC(C)(C)C)NC(=O)[C@H](CC(=O)O)NC2=O (stereo partly drawn) [I-2508, Ac-PL3-Asp-Npg-B6-Asp-3COOHF-Ala-Ala-Phe-Leu-PyrS1-2F3MeF-BztA-Gln-NH2]
IC50 ([1]; read-out: NanoBRET Abs IC50): 27.3 µM
IC50 ([2]; read-out: beta-Catenin FP IC50): 152 nM

CC(=O)N1CCC[C@]12CC=CCCCCC1(CCCCC=CCCOC(=O)N3CC[C@@](C(=O)N[C@@H](Cc4ccccc4C(F)(F)F)C(=O)N[C@@H](Cc4csc5ccccc45)C(=O)N[C@@H](C)C(N)=O)(C3)NC(=O)[C@H](CC(C)C)NC(=O)[C@H](Cc3ccccc3)NC(=O)[C@H](C)NC(=O)[C@H](CCC(N)=O)NC(=O)[C@H](Cc3cccc(C(=O)O)c3)NC(=O)[C@H](CC(=O)O)NC1=O)NC(=O)[C@H](CC(C)(C)C)NC(=O)[C@H](CC(=O)O)NC2=O (stereo partly drawn) [I-2510, Ac-PL3-Asp-Npg-B6-Asp-3COOHF-Gln-Ala-Phe-Leu-PyrS1-2F3MeF-BztA-Ala-NH2]
IC50 ([1]; read-out: NanoBRET Abs IC50): 7.8 µM
IC50 ([2]; read-out: beta-Catenin FP IC50): 24 nM

CC(=O)N1CCC[C@]12CC=CCCCCC1(CCCCC=CCCCOC(=O)N3CC[C@@](C(=O)N[C@@H](Cc4ccccc4C(F)(F)F)C(=O)N[C@@H](Cc4csc5ccccc45)C(=O)N[C@@H](CCC(N)=O)C(N)=O)(C3)NC(=O)[C@H](CC(C)C)NC(=O)[C@H](Cc3ccccc3)NC(=O)[C@H](C)NC(=O)[C@H](C)NC(=O)[C@H](Cc3cccc(C(=O)O)c3)NC(=O)[C@H](CC(=O)O)NC1=O)NC(=O)[C@H](CC(C)(C)C)NC(=O)[C@H](CC(=O)O)NC2=O (stereo partly drawn) [I-2513, Ac-PL3-Asp-Npg-B6-Asp-3COOHF-Ala-Ala-Phe-Leu-PyrS2-2F3MeF-BztA-Gln-NH2]
IC50 ([1]; read-out: NanoBRET Abs IC50): > 20 µM
IC50 ([2]; read-out: beta-Catenin FP IC50): 66 nM

CC(=O)N1CCC[C@]12CC=CCCCCC1(CCCCC=CCCCOC(=O)N3CC[C@@](C(=O)N[C@@H](Cc4ccccc4C(F)(F)F)C(=O)N[C@@H](Cc4csc5ccccc45)C(=O)N[C@@H](C)C(N)=O)(C3)NC(=O)[C@H](CC(C)C)NC(=O)[C@H](Cc3ccccc3)NC(=O)[C@H](C)NC(=O)[C@H](CCC(N)=O)NC(=O)[C@H](Cc3cccc(C(=O)O)c3)NC(=O)[C@H](CC(=O)O)NC1=O)NC(=O)[C@H](CC(C)(C)C)NC(=O)[C@H](CC(=O)O)NC2=O (stereo partly drawn) [I-2515, Ac-PL3-Asp-Npg-B6-Asp-3COOHF-Gln-Ala-Phe-Leu-PyrS2-2F3MeF-BztA-Ala-NH2]
IC50 ([1]; read-out: NanoBRET Abs IC50): > 20 µM
IC50 ([2]; read-out: beta-Catenin FP IC50): 1610 nM

CC(=O)N1CCC[C@]12CC=CCCCCC1(CCCCC=CCCCOC(=O)N3CC[C@@](C(=O)N[C@@H](Cc4ccccc4C(F)(F)F)C(=O)N[C@@H](Cc4csc5ccccc45)C(=O)N[C@@H](C)C(N)=O)(C3)NC(=O)[C@H](CC(C)C)NC(=O)[C@H](Cc3ccccc3)NC(=O)[C@H](C)NC(=O)[C@H](CCC(N)=O)NC(=O)[C@H](Cc3cccc(C(=O)O)c3)NC(=O)[C@H](CC(=O)O)NC1=O)NC(=O)[C@H](CC(C)(C)C)NC(=O)[C@H](CC(=O)O)NC2=O (stereo partly drawn) [I-2517, Ac-PL3-Asp-Npg-B6-Asp-3COOHF-Gln-Ala-Phe-Leu-PyrS2-2F3MeF-BztA-Ala-NH2]
IC50 ([1]; read-out: NanoBRET Abs IC50): 30 µM
IC50 ([2]; read-out: beta-Catenin FP IC50): 61 nM

CC(=O)N1CCC[C@]12CC=CCCCCC1(CCCCC=CCOC(=O)N3CC[C@@](C(=O)N[C@@H](Cc4ccccc4C(F)(F)F)C(=O)N[C@@H](Cc4csc5ccccc45)C(=O)N[C@@H](CCC(N)=O)C(N)=O)(C3)NC(=O)[C@H](CC(C)C)NC(=O)[C@H](Cc3ccccc3)NC(=O)[C@H](C)NC(=O)[C@H](C)NC(=O)[C@H](Cc3cccc(C(=O)O)c3)NC(=O)[C@H](CC(=O)O)NC1=O)NC(=O)[C@H](CC(C)(C)C)NC(=O)[C@H](CC(=O)O)NC2=O (stereo partly drawn) [I-2518, Ac-PL3-Asp-Npg-B6-Asp-3COOHF-Ala-Ala-Phe-Leu-PyrS-2F3MeF-BztA-Gln-NH2]
IC50 ([1]; read-out: NanoBRET Abs IC50): > 20 µM
IC50 ([2]; read-out: beta-Catenin FP IC50): 212 nM

CC(=O)NCCCC[C@@H]1NC(=O)[C@H](CCC(N)=O)NC(=O)[C@H](CC(=O)O)NC(=O)C2(CCCC=CCCCOC(=O)N3CC[C@@](C(=O)N[C@@H](Cc4ccccc4)C(=O)N[C@@H](Cc4csc5ccccc45)C(=O)N[C@@H](CC(=O)N4CCOCC4)C(N)=O)(C3)NC(=O)[C@H](CC(C)C)NC(=O)[C@H](Cc3ccccc3)NC(=O)[C@H](C)NC1=O)CCCC=CC[C@]1(CCCN1C(C)=O)C(=O)N[C@@H](CC(N)=O)C(=O)N[C@@H](CC1CCCCC1)C(=O)N2 (stereo partly drawn) [I-2522, Ac-PL3-Asn-Cha-B5-Asp-Gln-[Ac]Lys-Ala-Phe-Leu-PyrS2-Phe-BztA-MorphAsn-NH2]
IC50 ([1]; read-out: NanoBRET Abs IC50): > 20 µM
IC50 ([2]; read-out: beta-Catenin FP IC50): 219 nM

CC(=O)N1CCC[C@]12CC=CCCCC1(CCCC=CCCCOC(=O)N3CC[C@@](C(=O)N[C@@H](Cc4ccccc4)C(=O)N[C@@H](Cc4csc5ccccc45)C(=O)N[C@@H](CC(=O)N4CCOCC4)C(N)=O)(C3)NC(=O)[C@H](CC(C)C)NC(=O)[C@H](Cc3ccccc3)NC(=O)[C@H](C)NC(=O)[C@H](CCCCNC(=O)c3ccccc3)NC(=O)[C@H](CCC(N)=O)NC(=O)[C@H](CC(=O)O)NC1=O)NC(=O)[C@H](CC1CCCCC1)NC(=O)[C@H](CC(N)=O)NC2=O (stereo partly drawn) [I-2523, Ac-PL3-Asn-Cha-B5-Asp-Gln-[Phc]Lys-Ala-Phe-Leu-PyrS2-Phe-BztA-MorphAsn-NH2]
IC50 ([1]; NanoBRET Abs IC50 (uM)): > 20 µM
IC50 ([2]; beta-Catenin FP IC50 (nM)): 1730 nM

COCCOCCOCCOCCC(=O)NCCCC[C@@H]1NC(=O)[C@H](CCC(N)=O)NC(=O)[C@H](CC(=O)O)NC(=O)C2(CCCC=CCCCOC(=O)N3CC[C@@](C(=O)N[C@@H](Cc4ccccc4)C(=O)N[C@@H](Cc4csc5ccccc45)C(=O)N[C@@H](CC(=O)N4CCOCC4)C(N)=O)(C3)NC(=O)[C@H](CC(C)C)NC(=O)[C@H](Cc3ccccc3)NC(=O)[C@H](C)NC1=O)CCCC=CC[C@]1(CCCN1C(C)=O)C(=O)N[C@@H](CC(N)=O)C(=O)N[C@@H](CC1CCCCC1)C(=O)N2 (stereo partly drawn) [I-2526, Ac-PL3-Asn-Cha-B5-Asp-Gln-[mPEG4]Lys-Ala-Phe-Leu-PyrS2-Phe-BztA-MorphAsn-NH2]
IC50 ([1]; read-out: NanoBRET Abs IC50): > 20 µM
IC50 ([2]; read-out: beta-Catenin FP IC50): 224 nM
